Where two headings read alike, the source gives them in different places.
Columns and labels:
ARPE-19 = assay: Cell viability (MTT) assay, 24 h, noncancerous cells; assay type: cell-based, human; settings: n = 9, noncancerous retinal epithelia, read-out: IC50 ± SD, ARPE-19
Method: (§1) All cells were treated with compounds for 24 h, and cell viability was determined via the MTT assay. […] The nonfluorinated benzyl–imidazole complex [Ag2(L5)2](PF6)2 was synthesized and screened to determine if the fluorine has any influence on cytotoxicity.
(§2) All cytotoxicity assays were conducted using human cell lines: breast adenocarcinomas (MDA-MB-231 and MCF-7) and non-cancerous epithelial retinal (ARPE-19) cell lines. All cell lines were routinely maintained as monolayer cultures in an appropriate complete medium: MCF-7 and ARPE-19 in high glucose DMEM complete medium (including 10% FBS, 1 mM sodium pyruvate, 2 mM L-glutamine and 1% pen-strep) and MDA-MB-231 in RPMI-1640 complete medium (including 10% FBS, 1 mM sodium pyruvate, 2 mM L-glutamine and 1% pen-strep) and grown in either T-25 or T-75 flasks at 37 °C and 5% CO2. Prior to chemosensitivity studies, cell monolayers were passaged using Trypsin-EDTA (0.05%) and diluted to a concentration of 4 × 10^4 cells/mL. All assays were conducted using 96-well plates, in which 100 μL of the cell suspension was added for 24 h at 37 °C and 5% CO2 and then 100 μL of compound/media dilutions for a further 24 h (compound stocks were made using sterile DMSO at 100 mM prior to dilution and a maximum of 0.1% DMSO used in each assay).

MDA-MB-231 = assay: Cell viability (MTT) assay, 24 h; assay type: cell-based, human; settings: for IC50: 24 h treatment, MTT, n = 9, read-out: IC50 ± SD, MDA-MB-231; for MCF-7/MDA-MB-231 SR (selectivity ratio): ratio of IC50 MCF-7 versus MDA-MB-231
Method: as §1, §2

MCF-7 = assay: Cell viability (MTT) assay, 24 h; assay type: cell-based, human; settings: for IC50: 24 h treatment, MTT, n = 9, read-out: IC50 ± SD, MCF-7
Method: as §1, §2

DNA = test system: DNA; design: method as in PMID 27060216; settings: cited from earlier work
[1] = Homo sapiens, ARPE-19, 24 h treatment

Structure (SMILES)	IC50 (ARPE-19; [1])	IC50 (MDA-MB-231; Homo sapiens, MDA-MB-231)	IC50 (MCF-7; Homo sapiens, MCF7)	IC50 (ARPE-19; 24 h treatment)	IC50 (MDA-MB-231)	MCF-7/MDA-MB-231 SR (selectivity ratio) (MDA-MB-231)	IC50 (MCF-7)	Selectivity index (SI) MCF-7 vs ARPE-19 (MCF-7; SI > 1 indicates selectivity for the breast cancer line, * = minimum value)	Binding constant to DNA (DNA)
Fc1ccc(C[n+]2cn(Cn3c[n+](Cc4ccc(F)cc4)c4ccccc43)c3ccccc32)cc1 [H2L4(PF6)2, 1,1′-Bis-(4-fluorobenzyl)-3,3′-methylenedibenzimidazolium dihexafluorophosphate]	> 100 µM	> 100 µM	> 100 µM						
[NH2][Pt]([NH2])([Cl])[Cl] [CDDP, cisplatin, reference compound]				> 100 µM	> 100 µM	< 0.54	54 ± 3 µM	≥ 1.84	
Fc1ccc(Cn2c[n+](Cc3ccc(F)cc3)c3ccccc32)cc1 [HL2(PF6), 1,3-Bis-(4-fluorobenzyl)benzimidazolium hexafluorophosphate]	> 100 µM	42.6 ± 0.05 µM	> 100 µM			> 2.35			
COc1cccc2c1C(=O)c1c(O)c3c(c(O)c1C2=O)C[C@@](O)(C(=O)CO)C[C@@H]3O[C@H]1C[C@H](N)[C@H](O)[C@H](C)O1 [doxorubicin]									2.33 ± 0.33 × 10^4 M^–1

Source: article PMC11523213, “Fluorinated N-Heterocyclic Carbene Silver(I) Complexes with High Cancer Cell Selectivity” (Organometallics, 2024)
